Series [1] relates to murine Factor XI mRNA. The series can be described thus: In vivo antisense inhibition of murine Factor XI: liver RNA analysis (Example 10). The note with it: BALB/c mice, relative to PBS control. As to the method: Several antisense oligonucleotides targeted to murine Factor XI mRNA (GENBANK Accession No. NM_028066.1, incorporated herein as SEQ ID NO: 6) showing statistically significant dose-dependent inhibition from the in vitro study were evaluated in vivo. BALB/c mice were treated with ISIS 404057 ([…], target start site 487, incorporated herein as SEQ ID NO: 10) and ISIS 404071 ([…], target start site 869, incorporated herein as SEQ ID NO: 11).
BALB/c mice were injected with 5 mg/kg, 10 mg/kg, 25 mg/kg, or 50 mg/kg of ISIS 404057 or ISIS 404071 twice a week for 3 weeks. A control group of mice was injected with phosphate buffered saline (PBS) twice a week for 3 weeks. Mice were sacrificed 5 days after receiving the last dose. Whole liver was harvested for RNA analysis and plasma was collected for protein analysis.
RNA was extracted from liver tissue for real-time PCR analysis of Factor XI. […] Results are presented as percent inhibition of Factor XI, relative to control.

For series [2], the system named is IL-1, IL-6, IL-10, IL-12, IL-17, TNF-α, GATA-3. As to the kind of experiment: Colitis Study F: cytokine and GATA-3 mRNA levels in colon. The class given is in vivo, Swiss Webb mice. The note with it: day 7. On the procedure: In a first group of 8 Swiss Webb mice, 50 mg/kg of ISIS 404071 was injected subcutaneously twice a week for 3 weeks. Two control groups of 8 mice each were injected with PBS twice a week for 3 weeks. After the oligonucleotide treatment, 4% DSS in water was administered ad libitum for 7 days to the experimental group and one PBS control group. Mice were sacrificed at the end of the study on day 7 after DSS was administered.
The mRNA levels of cytokines IL-1, IL-6, IL-10, IL-12, IL-17 and TNF-α were measured in the colon of the mice groups at the end of the study on day 7 after DSS was administered. Colons were homogenized on ice in PBS supplemented with protease inhibitors (Sigma, St. Louis, Mo.) and extracted with rotation at 4° C. for 1 hour. After removal of insoluble material by centrifugation, colon homogenates were used for the cytokine analysis by multiplex ELISA (Meso Scale Discovery, Gaithersburg, Md.) according to the manufacture's protocol. Cytokine levels in colon extracts were normalized to the protein concentration measured by protein assay kit (BioRad, Hercules, Calif.). The levels of pro-inflammatory cytokines, including Th1 cytokines IL-1 and IL-6, elevated by DSS administration were decreased by treatment with ISIS 404071.

For series [3], the system named is DSS-induced colitis model. The series can be described thus: Colitis Study B: body weight and colon length. The class given is in vivo, Swiss Webb mice. On the procedure: In a first group of 8 Swiss Webb mice, 20 mg/kg of ISIS 404071 was injected subcutaneously twice a week for 3 weeks. In a second group of 8 Swiss Webb mice, 20 mg/kg of ISIS 404057 was subcutaneously injected twice a week for 3 weeks. In a third control group of 8 Swiss Webb mice, 20 mg/kg of ISISI 421208 was injected subcutaneously twice a week for 3 weeks. Two control groups of 8 mice each were injected with PBS twice a week for 3 weeks. After the oligonucleotide treatment, 4% DSS in water was administered ad libitum for 6 days to all the experimental groups and one PBS control group.
Mice in all groups were weighed at day 0 and daily after administration of DSS. Mice were sacrificed at the end of the study on day 7 after DSS was administered, their livers and colons were harvested for RNA analysis, and their body weights and colon lengths were measured.

For series [4], the system named is collagen-induced arthritis (CIA) model. The series can be described thus: Arthritis Study A: collagen-induced arthritis (Example 11). The class given is in vivo, DBA/1J mice. The note with it: for incidence of CIA (in words): 20 mg/kg. As to the method: The effect of inhibition of Factor XI and its role in fibrin accumulation in the joints leading to joint inflammation and rheumatoid arthritis was evaluated in a murine collagen-induced arthritis (CIA) model. […] Arthritis induced in mice administered collagen can be visually assessed and clinically scored as described by Marty et al. (J Clin Invest, 107:631-640, 2001) where 1 point is given for each swollen digit except the thumb (maximum, 4), 1 point is given for the tarsal or carpal joint, and 1 point is given for the metatarsal or metacarpal joint with a maximum score of […]. Each paw was graded individually, the cumulative clinical arthritic score per mouse reaching a maximum of 22 points
In a group of 15 DBA/1J mice, 20 mg/kg of ISIS 404071 was injected subcutaneously twice a week for 12 weeks. One control group of 15 mice was injected with 20 mg/kg of ISIS 403102 twice a week for 12 weeks. Two control groups of 15 mice each were injected with PBS twice a week for 12 weeks. Two weeks after the first oligonucleotide dose, type II bovine collagen (Chondrex Inc, Redmond, Wash.) was mixed with complete Freund's adjuvant, homogenized on ice and the emulsion, containing 100 μg of collagen, was injected subcutaneously at the base of the tail in the Factor XI group, the Factor VII group and one of the PBS control groups. A booster injection containing 100 μg collagen type II in incomplete Freund's adjuvant was injected subcutaneously at the base of the tail at a different injection site on day 21 after the first collagen injection in these groups.
Starting 35 days from the first collagen injection, mice in all groups were examined daily for the visual appearance of arthritis, such as swelling and stiffness, in peripheral joints. The results are presented in Table 20 (expressed as a percentage of the PBS control) and in FIGS. 1-3.
‘Incidence of CIA’ refers to the percentage of mice in each group that had CIA at day 40. The ‘percentage of paws affected’ refers to the percentage of paws out of a total of 60 paws in each group of mice that were affected with arthritis. ‘Average number of affected paws’ refers to the number of affected paws in mice that were diagnosed to have arthritis. The ‘clinical severity of CIA’ was scored as described by Marty et al. (J Clin Invest, 107:631-640, 2001) and as follows: 1 point for each swollen digit except the thumb (maximum, 4), 1 point for the tarsal or carpal joint, and 1 point for the metatarsal or metacarpal joint with a maximum score of 6 for a hindpaw and 5 for a forepaw. Each paw was graded individually, the cumulative clinical arthritic score per mouse reaching a maximum of 22 points.

Where [5] appears, read: DSS-induced colitis, day 7, 20 mg/kg s.c. twice a week for 3 weeks, percent change compared to the PBS control.

Entries after “also recorded” stand apart in the source; their conditions may differ. In the oligonucleotide strings, read from the 5' end, every base follows the letter of its sugar. An asterisk marks phosphorothioate; unmarked linkages are phosphodiester. Other units and linkages are bracketed, terminal groups are in braces. A string of capitals states the bases alone. e = 2'-O-(2-methoxyethyl) (MOE); [5mC] = 5-methylcytosine; d = 2'-deoxy (DNA)

One may read the % inhibition as how much of the control response was suppressed. Low values mean a response near the control, high ones a response far below the control. Take “TGGTAATCCACTTTCAGAGG (eT*eG*eG*eT*eA*dA*dT*d[5mC]*d[5mC]*dA*d[5mC]*dT*dT*dT*d[5mC]*eA*eG*eA*eG*eG) [ISIS 404071, 5-10-5 MOE gapmer targeting murine Factor XI, target start site 869]”: the “% inhibition” value in series [1] (5 mg/kg twice a week for 3 weeks) is listed as 72%. Also, the “% inhibition” value in series [1] (10 mg/kg twice a week for 3 weeks) turned out to be 82%. In series [1] (25 mg/kg twice a week for 3 weeks), the “% inhibition” value came to 93%. Also, the “% inhibition” value in series [1] (50 mg/kg twice a week for 3 weeks) was 96%. Besides, the “pro-inflammatory cytokines incl. IL-1 and IL-6 in colon (in words)” value in series [2] (Colitis Study F) is “decreased”. Further, in series [2] (DSS-treated mice, 50 mg/kg), the “GATA-3 mRNA level in the colon” value is 359 % of PBS treated animals, the “IL-1 mRNA level in the colon” value was 1189 % of PBS treated animals, the “IL-6 mRNA level in the colon” value is on record as 1056 % of PBS treated animals and the “IL-10 mRNA level in the colon” value is reported as 202 % of PBS treated animals. In addition, in series [2] (DSS-treated mice, 50 mg/kg), the “IL-12 mRNA level in the colon” value is reported as 234 % of PBS treated animals, the “IL-17 mRNA level in the colon” value is 787 % of PBS treated animals and the “TNF-α mRNA level in the colon” value is 1127 % of PBS treated animals. In addition, the “body weight (in words)” value in series [3] (Colitis Study B, FIG. 9) is given as “did not have any significant change in body weight”. In series [3] (setting [5]), the Body weight is given as −10% and the Colon length was −11%. For the same sequence, the “incidence of CIA (in words)” value in series [4] (Arthritis Study A) is listed as “significantly inhibit the incidence of CIA”. Also, the “incidence of CIA (in words)” value in series [4] (Arthritis Study A, listed as Factor XI ASO) was “lower incidence of CIA”. In addition, the “affected paws (in words)” value in series [4] (Arthritis Study A, FIG. 1B and 2A, listed as Factor XI ASO) is recorded as “lower incidence of affected paws; also recorded: fewer affected paws on average”. Moreover, the “arthritis severity (in words)” value in series [4] (Arthritis Study A, FIG. 2B) was “less severe arthritis than the control mice”. The “timeline of CIA incidence (in words)” value in series [4] (Arthritis Study A, FIG. 3) was “developed CIA at a later stage with fewer affected mice”. Also, the “Average no. of paws affected” value in series [4] (DBA/1J mice, 20 mg/kg s.c. twice a week for 12 weeks, in mice diagnosed with arthritis) was found to be 1. In addition, the “% of paws affected” value in series [4] (DBA/1J mice, 20 mg/kg s.c. twice a week for 12 weeks, out of 60 paws per group) worked out at 3%. In addition, the “% of CIA” value in series [4] (DBA/1J mice, 20 mg/kg s.c. twice a week for 12 weeks, percentage of mice in group with CIA at day 40) was found to be 13%. For the same sequence, the “Clinical severity of CIA” value in series [4] (DBA/1J mice, 20 mg/kg s.c. twice a week for 12 weeks, score of Marty et al., maximum 22 points) came out at 1.
